In ChEMBL document CHEMBL1681726, “Discovery of orally available tetrahydroquinoline-based glucocorticoid receptor agonists” (Bioorg Med Chem Lett, 2011):
pEC50, pIC50, pKi: −log10 of the molar value.

Tests used:
[1] = Metabolic stability in CD-1 […] liver microsomes by HPLC-MS/MS; assay type: ADME, Microsome; settings: CD-1, liver microsomes
[2] = Metabolic stability in human liver microsomes by HPLC-MS/MS; assay type: ADME, Microsome
Glucocorticoid receptor [3] = molecular target: T1, Glucocorticoid receptor (Homo sapiens, UniProt P04150); test: Displacement of radiolabeled Dexamethasone from GR
T1 sequence (P04150 whole entry): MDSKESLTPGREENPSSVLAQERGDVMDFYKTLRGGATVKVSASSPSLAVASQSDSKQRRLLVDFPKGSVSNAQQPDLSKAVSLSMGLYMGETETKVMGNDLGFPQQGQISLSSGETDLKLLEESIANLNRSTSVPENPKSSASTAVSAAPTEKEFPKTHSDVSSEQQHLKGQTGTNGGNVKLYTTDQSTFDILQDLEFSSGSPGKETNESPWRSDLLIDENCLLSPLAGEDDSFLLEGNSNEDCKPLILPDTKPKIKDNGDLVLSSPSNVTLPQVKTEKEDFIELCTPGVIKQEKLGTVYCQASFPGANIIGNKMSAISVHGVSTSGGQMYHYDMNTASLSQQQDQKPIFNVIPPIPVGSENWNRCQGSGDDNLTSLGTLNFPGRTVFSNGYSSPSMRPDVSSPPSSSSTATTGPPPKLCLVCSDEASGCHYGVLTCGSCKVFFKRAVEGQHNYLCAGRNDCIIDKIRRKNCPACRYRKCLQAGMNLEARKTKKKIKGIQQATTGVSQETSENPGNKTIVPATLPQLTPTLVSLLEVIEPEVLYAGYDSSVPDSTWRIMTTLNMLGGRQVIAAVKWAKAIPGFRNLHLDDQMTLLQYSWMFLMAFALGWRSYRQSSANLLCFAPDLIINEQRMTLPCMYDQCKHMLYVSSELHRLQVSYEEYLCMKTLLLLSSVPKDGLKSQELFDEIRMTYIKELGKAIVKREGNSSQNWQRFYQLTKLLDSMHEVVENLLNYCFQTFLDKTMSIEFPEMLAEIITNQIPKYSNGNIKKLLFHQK

Glucocorticoid receptor [4] = molecular target: T1, Glucocorticoid receptor; test: Agonist activity at GR expressed in african green monkey CV1 cells transfected with luciferase gene linked to MMTV promoter assessed as induction of luciferase transactivation activity relative to Dexamethasone; assay type: functional, cell-based, CV-1
Glucocorticoid receptor [5] = molecular target: T1, Glucocorticoid receptor; test: Agonist activity at GR expressed in IL-1beta- and TNFalpha-stimulated HepG2 cells assessed as inhibition of NFKB- or AP-1 mediated E-selectin transcription by luciferase reporter gene assay relative to Dexamethasone; assay type: functional, cell-based
Glucocorticoid receptor [6] = molecular target: T1, Glucocorticoid receptor; test: Agonist activity at human GR expressed in NHDF cells assessed as inhibition of IL-6 production by ELISA relative to Dexamethasone; assay type: functional, cell-based
Progesterone receptor = molecular target: T2, Progesterone receptor (Homo sapiens, UniProt P06401); test: Binding affinity to PR
T2 sequence (P06401 whole entry): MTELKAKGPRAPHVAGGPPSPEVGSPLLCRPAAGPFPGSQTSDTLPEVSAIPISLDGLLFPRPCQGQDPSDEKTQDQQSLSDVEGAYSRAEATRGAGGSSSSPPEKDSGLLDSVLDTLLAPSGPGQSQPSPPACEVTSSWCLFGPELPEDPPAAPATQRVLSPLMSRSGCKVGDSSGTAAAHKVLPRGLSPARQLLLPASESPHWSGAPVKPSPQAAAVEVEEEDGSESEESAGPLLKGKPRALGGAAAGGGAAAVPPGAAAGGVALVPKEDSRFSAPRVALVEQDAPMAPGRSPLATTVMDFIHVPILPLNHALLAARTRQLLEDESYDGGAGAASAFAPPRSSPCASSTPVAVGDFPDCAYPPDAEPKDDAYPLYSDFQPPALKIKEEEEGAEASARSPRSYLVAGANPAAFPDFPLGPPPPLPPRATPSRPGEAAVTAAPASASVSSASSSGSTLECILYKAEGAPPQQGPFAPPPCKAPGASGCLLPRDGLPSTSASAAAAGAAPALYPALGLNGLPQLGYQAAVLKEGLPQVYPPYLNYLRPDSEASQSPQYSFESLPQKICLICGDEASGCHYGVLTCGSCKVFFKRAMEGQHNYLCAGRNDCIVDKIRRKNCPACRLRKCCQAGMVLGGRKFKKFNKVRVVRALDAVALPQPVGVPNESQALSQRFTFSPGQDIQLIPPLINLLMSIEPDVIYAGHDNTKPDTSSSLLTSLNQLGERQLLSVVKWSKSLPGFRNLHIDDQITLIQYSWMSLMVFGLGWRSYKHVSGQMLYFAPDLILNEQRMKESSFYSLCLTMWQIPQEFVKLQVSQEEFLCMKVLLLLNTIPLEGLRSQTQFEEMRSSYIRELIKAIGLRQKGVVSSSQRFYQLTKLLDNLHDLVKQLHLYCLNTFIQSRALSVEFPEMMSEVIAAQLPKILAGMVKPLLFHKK

[7] = Selectivity ratio of Ki for GR to Ki for PR

Row | half-life [1] [min] | half-life [2] [min] | pKi (Glucocorticoid receptor [3]) | pEC50 (Glucocorticoid receptor [4]) | pIC50 (Glucocorticoid receptor [5]) | pIC50 (Glucocorticoid receptor [6]) | pKi (Progesterone receptor) | Ratio Ki [7] | Structure (SMILES)
1 | 3.3 | 4.7 |  |  |  |  |  |  | Cc1cc(-c2cccc3cc[nH]c23)c(Cl)c2c1NC(C)(C)[C@H](O)[C@H]2C (racemic)
2 |  |  | 8.92 | 9.05 | 8.33 | 8.03 |  |  | Cc1cc(-c2cccc3cc[nH]c23)c(C)c2c1NC(C)(C)[C@H](O)[C@H]2C (racemic)
3 | 13 | 13 | 8.89 | 8.02 | 8.28 | 7.80 |  |  | Cc1cc(-c2cccc3cc[nH]c23)c(C#N)c2c1NC(C)(C)[C@H](O)[C@H]2C (racemic)
4 |  |  | 7.93 | 7.80 | 7.82 | < 6.00 |  |  | CCc1c(-c2cccc3cc[nH]c23)cc(C)c2c1[C@H](C)[C@@H](O)C(C)(C)N2 (racemic)
5 |  |  | 8.62 | 7.96 | 8.11 | 7.70 |  |  | C[C@H]1c2cc(-c3cccc4cc[nH]c34)c(F)c(F)c2NC(C)(C)[C@@H]1O (racemic)
6 |  |  | 7.78 | 8.24 | 8.19 | 7.80 |  |  | Cc1cc(-c2cccc3cc[nH]c23)c(/C=C/C#N)c2c1NC(C)(C)[C@H](O)[C@H]2C (racemic)
7 | 25 | 21 | 8.74 | 7.44 | 7.68 | 7.59 | 6.72 | > 100 | Cc1c(Cl)c(-c2cccc3cc[nH]c23)cc2c1NC(C)(C)[C@H](O)[C@H]2C (racemic)
8 |  |  | 8.22 | 7.47 | 8.26 | 8.42 |  |  | Cc1cc(-c2cccc3cc[nH]c23)c(/C=N/OC(C)(C)C)c2c1NC(C)(C)[C@H](O)[C@H]2C (racemic)
9 |  |  | 8.30 | 7.80 | 8.42 | 7.72 |  |  | C[C@H]1c2c(F)c(-c3cccc4cc[nH]c34)c(F)c(F)c2NC(C)(C)[C@@H]1O (racemic)
10 |  |  | 8.51 | 7.74 | 7.89 | < 6.00 |  |  | C=Cc1c(-c2cccc3cc[nH]c23)cc2c(c1C)NC(C)(C)[C@H](O)[C@H]2C (racemic)
11 |  |  | 8.82 | 9.70 | 9.05 | 8.47 |  |  | CCO/N=C/c1c(-c2cccc3cc[nH]c23)cc(C)c2c1[C@H](C)[C@@H](O)C(C)(C)N2 (racemic)
12 |  |  | 9.00 | 8.89 | 8.41 | 7.80 |  |  | C[C@H]1c2c(F)c(-c3cccc4cc[nH]c34)c(F)c(Cl)c2NC(C)(C)[C@@H]1O (racemic)
13 |  |  | 8.16 | 9.40 | 8.77 | 8.38 |  |  | CO/N=C/c1c(-c2cccc3cc[nH]c23)cc(C)c2c1[C@H](C)[C@@H](O)C(C)(C)N2 (racemic)
14 | 16 | 17 | 9.05 | 7.40 | 8.77 | 8.39 |  |  | Cc1c(F)c(-c2cccc3cc[nH]c23)cc2c1NC(C)(C)[C@H](O)[C@H]2C (racemic)
15 |  |  | 8.64 | 7.25 | 8.23 | 8.15 |  |  | Cc1cc(-c2cccc3cc[nH]c23)c(F)c2c1NC(C)(C)[C@H](O)[C@H]2C (racemic)
16 |  |  | 6.97 | < 6.00 | < 6.00 | < 6.00 |  |  | Cc1c2c(cc(-c3cccc4cc[nH]c34)c1C(F)(F)F)[C@H](C)[C@@H](O)C(C)(C)N2 (racemic)
17 |  |  | 8.46 | 8.43 | 8.51 | 7.84 |  |  | Cc1cc(-c2cccc3cc[nH]c23)c(/C=N/OCc2ccccc2)c2c1NC(C)(C)[C@H](O)[C@H]2C (racemic)
18 |  |  | 7.98 | 6.95 | 8.11 | < 6.00 |  |  | CC(=O)/C=C/c1c(-c2cccc3cc[nH]c23)cc(C)c2c1[C@H](C)[C@@H](O)C(C)(C)N2 (racemic)
19 |  |  | 7.42 | 6.69 | 7.38 | < 6.00 |  |  | Cc1c(-c2cccc3cc[nH]c23)cc2c(c1C)NC(C)(C)[C@H](O)[C@H]2C (racemic)
20 |  |  | 6.80 | 6.32 | 6.52 | < 6.00 |  |  | C[C@H]1c2c(cc(Cl)c(-c3cccc4cc[nH]c34)c2Cl)NC(C)(C)[C@@H]1O (racemic)
21 |  |  | 6.50 | 6.98 | 7.96 | < 6.00 |  |  | Cc1cc(-c2cccc3cc[nH]c23)c(/C=N/O)c2c1NC(C)(C)[C@H](O)[C@H]2C (racemic)
22 |  |  | 7.71 | 7.40 | < 6.00 | < 6.00 |  |  | C=Cc1c(-c2cccc3cc[nH]c23)cc(C)c2c1[C@H](C)[C@@H](O)C(C)(C)N2 (racemic)
23 |  |  | 8.05 | 6.97 | 7.68 | < 6.00 |  |  | Cc1cc(-c2cccc3cc[nH]c23)cc2c1NC(C)(C)[C@H](O)[C@H]2C (racemic)
24 | 3.8 | 15 | 8.10 | 7.05 | 7.77 | 7.85 |  |  | C[C@H]1c2c(Cl)c(-c3cccc4cc[nH]c34)cc(F)c2NC(C)(C)[C@@H]1O (racemic)
